The results in this text go back to patent US9551724B2, “5-fluoro-uracil immunoassay” (SALADAX BIOMEDICAL, INC., priority 2005, dated 2017).

Type in all cases: binding, BALB/c mice
In test [1] the test system is polyclonal antibody to 3-Substituted 5-FU BTG Immunogen (example 6a). Kind of test: Indirect competitive microtiter plate immunoassay (ELISA), antibodies to 5-FU derivative 13 conjugate; plate coating 1-substituted BSA conjugate (20:1, example 8). The settings on record: relative to 5-FU (ratio of IC50 for 5-FU to IC50 of analyte), 3-Substituted BTG Immunogen, plate coating 1-Substituted BSA Conjugate (20:1 ratio). The method, then:
(§1) Ten Female BALB/c mice were immunized i.p. with 100 μg/mouse of 5-FU-KLH prepared in example 5 or with 5-FU-BTG prepared in example 6a, emulsified in Complete Freund's Adjuvant. Mice were boosted once four weeks after the initial injection with 100 μg/mouse of the same immunogens emulsified in Incomplete Freund's Adjuvant. Ten days after the boost test bleeds from each mouse were obtained by orbital bleed. The anti-serum from these test bleeds contained 5-FU antibodies evaluated in Examples 12a, 13, and 14. For monoclonal antibodies ten Female BALB/c mice were immunized i.p. with 100 μg/mouse of 3-substituted 5-FU-KLH prepared in example 6b, emulsified in Complete Freund's Adjuvant. Mice were boosted once four weeks after the initial injection with 100 μg/mouse of the same immunogens emulsified in Incomplete Freund's Adjuvant. Ten days after the boost test bleeds from each mouse were obtained by orbital bleed and these were screened as in examples 12a and 15. To produce monoclonal antibodies starting four days before the fusion (day 0), the mice were injected i.p. with 400 μg (day 3), 200 μg (day 2) and 200 μg (day 1) 3-substituted 5-FU KLH immunogen in PBS on three successive days. Spleen cells were isolated from the selected mice and fused with 2×10^7 SP2/0 cells with 50% polyethylene glycol 1500 according to the method of Coligan, J. E. et al., eds., Current Protocols in Immunology, 2.5.1-2.5.8, (1992), Wiley & Sons, NY. The fused cells were plated on 10 96-well plates in DMEM/F12 supplemented with 20% FetalClone I, 2% L-glutamine (100 mM) and 2% 50×HAT. Two weeks later, the hybridoma supernatant was assayed for the presence of anti-5-FU by ELISA (example 12b). Positive wells were expanded and again screened by the same method. The positive clones were confirmed for 5-FU binding by a competitive ELISA (examples 12a and 15). Clones positive by ELISA were subcloned once or twice by limiting dilution according to the method disclosed in Coligan, J. E. et al., eds., Current Protocols in Immunology, 2.5.8-2.5.17, (1992), Wiley & Sons, NY.
(§2) The ELISA method for measuring 5-FU concentrations was performed in polystyrene microtiter plates (Nunc MaxiSorp C8 or F8 Immunomodules) optimized for protein binding and containing 96 wells per plate. Each well was coated with 5-FU-BSA conjugate (prepared as in example 8) by adding 300 μL of 5-FU-BSA conjugate at 10 μg/mL in 0.05M sodium bicarbonate, pH=9.6, and incubating for three hours at room temperature. The wells were washed with 0.05M sodium bicarbonate, pH9.6 and then were blocked with 400 μL of 5% sucrose, 0.2% sodium caseinate solution for 30 minutes at room temperature. After removal of the post-coat solution the plates were dried at 37° C. overnight.
(§3) The ELISA method for screening 5-FU antibodies (produced in example 9) was performed with the microtiter plates that were sensitized with 5-FU-BSA as described in examples 7a, 7b and 8. The antibody screening assay was performed by diluting the antisera containing 5-FU antibodies to 1:100, 1:1,000, 1:10,000 and 1:100,000 in phosphate buffered saline containing 0.1% BSA and 0.01% thimerosal. To each well of 5-FU-BSA sensitized wells (prepared in examples 11a, 11b and 10) 100 μL of diluted antibody was added and incubated for 10 minutes at room temperature with shaking. During this incubation antibody binds to the 5-FU-conjugate in the well. The wells of the plates were washed three times with 0.02 M TRIS, 0.9% NaCl, 0.5% Tween-80 and 0.001% Thimerosal, pH 7.8 to remove any unbound antibody. To detect the amount of 5-FU antibody bound to the 5-FU-BSA conjugate in the wells, 100 μL of a goat anti-mouse antibody-HRP enzyme conjugate (Jackson Immunoresearch) diluted 1/2000 in PBS with 0.1% BSA, 0.05% ANS, 0.01% thimerosal, capable of binding specifically with murine immunoglobulins and producing a colored product when incubated with a substrate, were added to each well. […]

Test [2] deals with monoclonal antibody to 3-substituted 5-FU KLH immunogen (example 6b). Kind of test: Indirect competitive microtiter plate immunoassay (ELISA), monoclonal antibody; plate coating 3-substituted BSA conjugate (1:1, example 7b). Particulars: relative to 5-FU (ratio of IC50 for 5-FU to IC50 of analyte), 3-Substituted KLH Immunogen, plate coating 3-Substituted BSA Conjugate (example 7b). How it is done: as §1
as §2, with “7b)” for “8)”, “375” for “400”
as §3

Test [3] has as its system polyclonal antibody to 1-Substituted 5-FU KLH Immunogen (example 5). Put plainly: Indirect competitive microtiter plate immunoassay (ELISA), antibodies to 5-FU derivative 4 conjugate; plate coating 3-substituted BSA conjugate (10:1, example 7a). The settings on record: relative to 5-FU (ratio of IC50 for 5-FU to IC50 of analyte), 1-Substituted KLH Immunogen, plate coating 3-Substituted BSA Conjugate (10:1 ratio). How it is done: as §1
as §2, with “7a)” for “8)”
as §3

Where only a bound is given, the exact number is not on record here.

For `Nc1cc[nH]c(=O)n1` [Cytosine, cytosine], the Cross-Reactivity in test [1] is on record as less than 0.3%; in test [1] (listed as cytosine), “less than 0.03%”; in test [2] it was less than 0.01%; in test [2] (listed as cytosine) it was “less than 0.01%”; in test [3], less than 0.1%.

For `O=c1cc[nH]c(=O)[nH]1` [Uracil, uracil], the Cross-Reactivity in test [1] is recorded as 7.5%; in test [1] (listed as uracil) it was “less than 8%”; in test [2], 7.3%; in test [2] (listed as uracil), “less than 8%”; in test [3], 4.0%.

`Cc1c[nH]c(=O)[nH]c1=O` [Thymine, thymine]: the Cross-Reactivity in test [1] was 12.0%; in test [1] (listed as thymine), “about 12%”; in test [2] it was 3.2%; in test [2] (listed as thymine), “less than 4%”; in test [3], 6.7%.

As to `O=c1[nH]cc(F)c(=O)[nH]1` [5Fluorouracil, 5-fluoro-uracil], the Cross-Reactivity in test [1], in test [2] and in test [3] was 100.0% throughout.

Turning to `O=c1[nH]c(=O)n(C2CCCO2)cc1F` (stereo not drawn) [Tegafur, tegafur], the Cross-Reactivity was 0.5% in test [1]; “less than 1%” in test [1] (listed as tegafur); 1.0% in test [2]; “approximately 1%” in test [2] (listed as tegafur); 200.0% in test [3]; 200% in test [3] (listed as tegafur).
